From patent publication EP4682143A1, “PHARMACEUTICAL COMPOSITION CONTAINING EGFR INHIBITOR, AND PREPARATION METHOD THEREFOR AND USE THEREOF” (Convalife Pharmaceuticals Co., Ltd., priority 2023, dated 2024)
Read-outs that look alike come from different tables or passages of the source.

How the values were obtained:
[1] = system: Cholangiocarcinoma PDX Model LD1-0060-200791; assay: Cholangiocarcinoma PDX model in vitro antiproliferation assay (CTG); format: cell-based; settings: for IC50: 144 h; for IC50 / Maximum Inhibition Rate (%) / Minimum Inhibition Rate (%): cultured 6 days, CTG; for Slope: slope of inhibition curve
Method: Tumor tissues were surgically excised from the subcutaneous tumors of tumor-bearing mice and immersed in HBSS buffer. Non-tumor and necrotic tissues were removed in a biosafety cabinet, and the tissues were cut into small pieces of 1-3 mm^3. Tumor pieces were digested with collagenase at 37°C for 1-2 hours. Single-cell suspensions were collected through a mesh, and centrifuged at 1200 rpm for 3 minutes to remove the supernatant. […] High-concentration drug stocks were diluted 1000× with BIO-MPM-1 medium to prepare 20× intermediate concentrations. Each well of a 96-well plate received 7.5 µL of the corresponding 20× drug solution or BIO-MPM-1 containing 2% DMSO (final DMSO concentration 0.2%). Then 135 µL of cell suspension was added per well. Cells were cultured continuously for 6 days at 37°C. Afterwards, 50 µL of CTG reagent was added per well. After mixing, 80 µL of the solution was measured in a multifunctional microplate reader for ATP content. Signals from each well were recorded to generate inhibition curves and calculate parameters such as IC50.
Inhibition curves were plotted using Xlfit (IDBS) to determine parameters including maximum inhibition, minimum inhibition, absolute IC50, relative IC50, and slope.
Proliferation rate (fold increase) was calculated as: Proliferation rate = (Vday6Control−Vday6Blank)/(Vday0Control−Vday0Blank) [formula]

[2] = system: Ba/F3-EGFR-G719S cell line; assay: CellTiter-Glo (CTG) cell proliferation assay (Example A); format: cell-based; settings: 72 hours, highest test concentration 1 µM
Method: Due to its high sensitivity and simple workflow, it is currently a widely used cell viability assay.
Cell viability was assessed by trypan blue exclusion to ensure viability above 90%. • c) Cells were adjusted to the desired density with complete growth medium and seeded into 96-well plates at 3,000 cells per well in 90 µL medium. • d) The seeded 96-well plates were incubated at 37°C under 5% CO2. • e) Ten-fold stock solutions of each compound were prepared, with the highest test concentration of 1 µM. Nine concentrations were generated by four-fold serial dilution. Subsequently, 10 µL of each diluted compound was transferred into the corresponding wells of the 96-well plates, with triplicate wells for each concentration. • f) The compound-treated 96-well plates were incubated for an additional 72 hours at 37°C under 5% CO2, followed by CTG analysis. • g) The CTG reagent was thawed and the cell plates were equilibrated to room temperature for 30 minutes. • h) An equal volume of CTG reagent was added to each well. • i) The plates were shaken on a plate shaker for 5 minutes to induce cell lysis. • j) Plates were incubated at room temperature for 20 minutes to stabilize the luminescent signal. • k) Luminescence was measured and data were collected.
Data were analyzed using GraphPad Prism 7.0 software. Nonlinear sigmoidal regression was applied to fit the dose-response curves, from which IC50 values were calculated.
Cell viability (%) was determined according to the following equation: Cell viability(%) = (Lumcompound−Lummedium control)/(Lumvehicle control−Lummedium control) × 100% [formula]

Row | Molecule | IC50 [2] [nM] | IC50 ([1]; read-out: Absolute IC50) [µM] | IC50 ([1]; read-out: Relative IC50) [µM] | Maximum Inhibition Rate (%) [1] [%] | Minimum Inhibition Rate (%) [1] [%] | Slope [1]
1 | CNCc1ccc(-c2cc3cc(F)cc(C(N)=O)c3o2)cc1 [CVL218] | – | 5.77 | 7.08 | 110.0 | 6.4 | 1.57
2 | CCOc1cc2ncc(C#N)c(Nc3ccc(OCc4ccccn4)c(Cl)c3)c2cc1NC(=O)/C=C/CN(C)C.O=C(O)/C=C\C(=O)O [Compound A009, (E)-N-(4-(3-chloro-4-(pyridin-2-ylmethoxy)anilino)-3-cyano-7-ethoxyquinolin-6-yl)-4-(dimethylamino)but-2-enamide maleate, reference compound] | – | 3.31 | 3.26 | 99.2 | -10.0 | 13.13
3 | c1cc(-c2nc(N3CCOCC3)c3oc4ccc(CN5CC6CC5CO6)cc4c3n2)c2cc[nH]c2c1 (stereo not drawn) [CVL237] | – | 3.48 | 3.41 | 99.5 | -10.0 | 9.51
4 | (E)-N-(4-((3-chloro-4-(pyridin-2-ylmethoxy)phenyl)amino)-3-cyano-7-ethoxyquinolin-6-yl)-4-(3,3-difluoroazetidin-1-yl)but-2-enamide [Compound A0902] | 2.53 | – | – | – | – | –

Further lines, with some results ahead:

Row | IC50 [2] [nM] | Molecule | IC50 ([1]; read-out: Absolute IC50) [µM] | IC50 ([1]; read-out: Relative IC50) [µM] | Maximum Inhibition Rate (%) [1] [%] | Minimum Inhibition Rate (%) [1] [%] | Slope [1]
5 | 69.6 | C=C(CN1CC(N(C)C)C1)C(=O)Nc1cc2c(Nc3ccc(OCc4ccccn4)c(Cl)c3)c(C#N)cnc2cc1OCC [Compound A0905, N-(4-((3-chloro-4-(pyridin-2-ylmethoxy)phenyl)amino)-3-cyano-7-ethoxyquinolin-6-yl)-2-((3-(dimethylamino)azetidin-1-yl)methyl)propenamide] | – | – | – | – | –
6 | 2.18 | (E)-N-(4-((3-chloro-4-(pyridin-2-ylmethoxy)phenyl)amino)-3-cyano-7-ethoxyquinolin-6-yl)-4-(methanesulfonamido)but-2-enamide [Compound A0904] | – | – | – | – | –
7 | 16.8 | CCOc1cc2ncc(C#N)c(Nc3ccc(OCc4ccccn4)c(Cl)c3)c2cc1NC(=O)/C=C/CN1CC(N(C)C)C1 [Compound A0901, (E)-N-(4-((3-chloro-4-(pyridin-2-ylmethoxy)phenyl)amino)-3-cyano-7-ethoxyquinolin-6-yl)-4-(3-(dimethylamino)azetidin-1-yl)but-2-enamide] | – | – | – | – | –
8 | 2.06 | CCOc1cc2ncc(C#N)c(Nc3ccc(OCc4ccccn4)c(Cl)c3)c2cc1NC(=O)/C=C/CN1CC(F)(F)C1 [Compound A0903, (E)-N-(4-((3-chloro-4-(pyridin-2-ylmethoxy)phenyl)amino)-3-cyano-7-ethoxyquinolin-6-yl)-4-(3,3-difluoroazetidin-1-yl)but-2-enamide] | – | – | – | – | –
9 | 152 | C=C(CN1CCC(N(C)C)CC1)C(=O)Nc1cc2c(Nc3ccc(OCc4ccccn4)c(Cl)c3)c(C#N)cnc2cc1OCC [Compound A0906, N-(4-((3-chloro-4-(pyridin-2-ylmethoxy)phenyl)amino)-3-cyano-7-ethoxyquinolin-6-yl)-2-((4-(dimethylamino)piperidin-1-yl)methyl)propenamide] | – | – | – | – | –
